Results published in patent publication US5650415A, “Quinoline compounds” (Sugen, Inc., priority 1995, dated 1997).

Tested on: HER2
Assay: HER2 whole cell kinase ELISA (first HER2 column of Table 1)
Type: cell-based
Conditions: cell line not given
From the text: The following examples illustrates the ability of the exemplary compounds to inhibit receptor tyrosine kinases, such as HER2 and/or EGFR. The following target cells were used for cellular kinase assays: NIH3T3 clone C7 (Honegger et al., supra) engineered to over-express human EGF receptor; NIH3T3 cells engineered to over-express a chimeric receptor containing the EGFR extracellular domain and the HER2 intracellular kinase domain; the human mammary carcinoma line BT474 (ATCC HTB2) expressing HER2; and the human glioblastoma line U1242 that expresses PDGFR-beta. Growth assays were carried out using human mammary epithelial SKBR3 (ATCC HTB30) cells (SKBR3 cells over-express HER2), SKOV3 (AT(D(D HTB77) human ovarian cancer cell line (SKOV3 cells also over-express HER2), A431 cells (A431 cells over-express EGFR) MCF7 human breast carcinoma cells, MCF7 cells overexpressing the HER2 kinase (MCF7-HER2), NIH3T3 cells, and NIH3T3 cells overexpressing the HER2 kinase (3T3-HER2.
EGFR-HER2 Chimeric Recetor
HER2 kinase activity (EGFR-3T3) in whole cells was measured as described below:
The materials and regeants are identical to these used in example 1, the EGFR whole cell kinase assay.
A. Coat ELISA plates (Corning, 96 well, Cat. #25805-96) with 05-101 antibody at 0.5 µg per well in PBS, 100 μl final volume/well, and store overnight at 4.sunburst. C. Coated plates are good for up to 10 days when stored at 4° C.
B. On day of use, remove coating buffer and replace with 100 μl blocking buffer (5% Carnation Instant Non-Fat Dry Milk in PBS). Incubate the plate, shaking, at room temperature (about 23.sunburst. C. to 25.sunburst. C.) for 30 minutes. Just prior to use, remove blocking buffer and wash plate 4 times with TBST buffer.
A. An NIH3T3 cell line overexpressing a chimeric receptor containing the EGFR extracellular domain and extracellular HER2 kinase domain can be used for this assay.
B. Choose dishes having 80-90% confluence for the experiment. Trypsinize cells and stop reaction by adding 10% fetal bovine serum. Suspend cells in DMEM medium (10% CS DMEM medium) and centrifuge once at 1500 rpm, at room temperature for 5 minutes.
C. Resuspend cells in seeding medium (DMEM, 0.5% bovine serum), and count the cells using trypan blue. Viability above 90% is acceptable. Seed cells in DMEM medium (0.5% bovine serum) at a density of 10,000 cells per well, 100 μl per well, in a 96 well microtiter plate. Incubate seeded cells in 5% CO2 at 37.sunburst. C. for about 40 hours.
A. Check seeded cells for contamination using an inverted microscope. Dilute drug stock (10 mg/ml in DMSO) 1:10 in DMEM medium, then transfer 5 l to a […] well for a final drug dilution of 1:200 and a final DMSO concentration of 1%. Control wells receive DMSO alone. Incubate in 5% CO2 at 37° C. for two hours.
B. Prepare EGF ligand: dilute stock EGF in DMEM so that upon transfer of 10 μl dilute EGF (1:12 dilution), 100 nM final concentration is attained.
D. After 120 minutes incubation with drug, add prepared […] ligand to cells, 10 μl per well, to a final concentration of 100 nM. Control wells receive DMEM alone. Incubate, shaking, at room temperature, for 5 minutes.
E. Remove drug, EGF, and DMEM. Wash cells twice with PBS. Transfer HNTG* to cells, 100 μl per well. Place on ice for 5 minutes. Meanwhile, remove blocking buffer from other ELISA plate and wash with TBST as described above.
F. With a pipette tip securely fitted to a micropipettor, scrape cells from plate and homogenize cell material by repeatedly aspirating and dispensing the HNTG* lysis buffer. Transfer lysate to a coated, blocked, and washed ELISA plate. Incubate shaking at room temperature for one hour.
G. Remove lysate and wash 4 times with TBST. Transfer freshly diluted anti-Ptyr antibody to ELISA plate at 100 μl per well. Incubate shaking at room temperature for 30 minutes in the presence of the anti-Ptyr antiserum (1:3000 dilution in TBST).
H. Remove the anti-Ptyr antibody and wash 4 times with TBST. […]

`CCOC(=O)c1cnc2ccc(C(F)(F)F)cc2c1Nc1ccc(Cl)cc1` [Compound A729, 4-(4-Chlorophenylamino)-3-ethoxycarbonyl-6-trifluoromethylquinoline] gave an IC50 of over 100 µM.
For `CCOC(=O)c1cnc2ccc(C(F)(F)F)cc2c1Nc1ccc(C#N)cc1` [Compound A725, 4-(4-Cyanophenylamino)-3-ethoxycarbonyl-6-trifluoromethylquinoline], the IC50 was over 100 µM.
`CCOC(=O)c1cnc2ccc(C(F)(F)F)cc2c1Nc1ccc(Br)cc1` [Compound A727, 4-(4-Bromophenylamino)-3-ethoxycarbonyl-6-trifluoromethylquinoline] was tested, and the IC50 was over 100 µM.
With `CCOC(=O)c1cnc2ccc(C(F)(F)F)cc2c1NCc1ccc(C(F)(F)F)cc1` [Compound A719, 3-Ethoxycarbonyl-4-(4-trifluoromethylbenzylamino)-6-trifluoromethylquinoline] the IC50 was over 100 µM.
In the case of `CCOC(=O)c1cnc2ccc(C(F)(F)F)cc2c1NCc1ccccc1C(F)(F)F` [Compound A717, 3-Ethoxycarbonyl-4-(2-trifluoromethylbenzylamino)-6-trifluoromethylquinoline], the IC50 is reported as over 100 µM.
`CCOC(=O)c1cnc2c(F)ccc(F)c2c1Sc1cccc(C(F)(F)F)c1` [Compound A713, 3-Ethoxycarbonyl-5,8-difluoro-4-(3-trifluoromethylphenylmercapto)quinoline] showed an IC50 of 7.9 µM.
With `CCOC(=O)c1cnc2ccc(C(F)(F)F)cc2c1NCc1cccc(C(F)(F)F)c1` [Compound A718, 3-Ethoxycarbonyl-4-(3-trifluoromethylbenzylamino)-6-trifluoromethylquinoline] the IC50 was over 100 µM.
Compound `CCOC(=O)c1cnc2ccc(C(F)(F)F)cc2c1Nc1cccc(Cl)c1` [Compound A728, 4-(3-Chlorophenylamino)-3-ethoxycarbonyl-6-trifluoromethylquinoline] has an IC50 of over 100 µM.
`CCOC(=O)c1cnc2cc(Cl)c(F)cc2c1Sc1ccc(Cl)cc1` [Compound A731, 7-Chloro-4-(4-chlorophenylmercapto)-6-fluoro-3-ethoxycarbonylquinoline] showed an IC50 of over 100 µM.
In the case of `CCOC(=O)c1cnc2ccc(C(F)(F)F)cc2c1Nc1ccccc1C#N` [Compound A723, 4-(2-Cyanophenylamino)-3-ethoxycarbonyl-6-trifluoromethylquinoline], the IC50 is reported as over 100 µM.
In the case of `CCOC(=O)c1cnc2c(F)ccc(F)c2c1Sc1ccc(Cl)cc1` [Compound A732, 4-(4-Chlorophenylmercapto)-5,8-difluoro-3-ethoxycarbonylquinoline], the IC50 is reported as 50 µM.
For `CCOC(=O)c1cnc2c(F)cc(F)cc2c1Sc1ccc(Cl)cc1` [Compound A730, 4-(4-Chlorophenylmercapto)-6,8-difluoro-3-ethoxycarbonylquinoline], the IC50 was over 100 µM.
With `CCOC(=O)c1cnc2ccc(C(F)(F)F)cc2c1Nc1ccc(OC)c(OC)c1` [Compound A726, 3-Ethoxycarbonyl-4-(3,4-dimethoxyphenylamino)-6-trifluoromethylquinoline] the IC50 was over 100 µM.
`CCOC(=O)c1cnc2ccc(C(F)(F)F)cc2c1Nc1ccccc1C(F)(F)F` [Compound A720, 3-Ethoxycarbonyl-4-(2-trifluoromethylphenylamino)-6-trifluoromethylquinoline] showed an IC50 of over 100 µM.
